The text below walks through data of patent publication US20050171192A1, “Use of histamine to treat bone disease” (priority 2003, published 2005).

The Km is the concentration of substrate that gives half-maximal velocity.

Each structure is given as a SMILES string. Where two headings read alike, the source gives them in different places.

Test [1] in a line: Example 1: inhibition of bone resorption in subjects with bone loss. The conditions noted are these: effective dose; Groups 1 through 10 compared to placebo Group 11. The format is in vivo. The method, then: Subjects suffering from bone loss exacerbated by osteoclast-produced ROS are identified. The subjects are separated into 11 groups of 10 subjects each. […] Subjects in Group 11 are administered a placebo.

The nature of test [2]: Example 7: bone loss associated with cancer treatments (hormone therapy). In kind it is in vivo. The conditions noted are these: oral 100 mg in conjunction with hormone therapy; compared to placebo group. As for the experimental part: Individuals suffering from cancer and being treated with hormone therapy are identified. The individuals are divided into 11 groups of 10 each. In conjunction with hormone therapy, Groups 1 through 10 are orally administered 100 mg of histamine, histamine agonists, histamine salts, histamine prodrugs, NADPH-oxidase inhibitors, histamine dihydrochloride, histamine phosphate, serotonin, 5HT agonists, or histamine receptor agonists, respectively. Group 11 receives a placebo in conjunction with hormone therapy.

The conditions of test [3]: intravenous 5 mg in conjunction with steroid therapy; compared to steroid therapy alone. The method, then: Individuals suffering from bone loss associated with steroid therapy, including treatment with corticosteroids, such as betamethasone, budesonide, cortisone dexamethasone, hydrocortisone, methylprednisolone, prednisolone, prednisone, and triamcinolone, are identified. In conjunction with steroid therapy, the individuals are intravenously administered 5 mg of a ROS scavenger or a placebo.

For test [4] the following is noted: oral 75 mg in conjunction with antibiotics; versus antibiotics alone. As for the experimental part: Individuals suffering from osteomyelitis are identified. The individuals are orally administered 75 mg of histamine phosphate in conjunction with antibiotics or antibiotics alone.
The target in test [5] is membrane bound oxidase of stimulated phagocytes (Homo sapiens, UniProt P04839). The conditions noted are these: substrate of the membrane bound oxidase; generally accepted (background); cited from earlier work.
The conditions of test [6]: oral 50 mg, 100 mg, 200 mg, 1,000 mg; relative to placebo group. The method, then:
Individual suffering from various types of osteoporosis, including type I and type II osteoporosis, age-related osteoporosis, disuse osteoporosis, diabetes-related osteoporosis, and steroid-related osteoporosis, are identified. The individuals are separated into 5 groups of 20 individuals. Individuals in Groups 1 through 4 are orally administered 50 mg, 100 mg, 200 mg, and 1,000 mg of histamine, respectively. Individuals in […] are administered a placebo. The rate of bone loss is reduced for Groups 1 through 4 relative to the rate of bone loss for the placebo group.

For test [7] the following is noted: oral 125 mg; versus placebo. The method, then:
Individuals suffering from bone loss associated with primary and secondary hyperparathyroidism are identified. The individuals are orally administered 125 mg of histamine or a placebo.

In the case of `Cl.Cl.NCCc1c[nH]cn1` [histamine dihydrochloride], in test [1], the “rate of bone healing” value is “accelerated” and the “rate of bone loss” value is recorded as “reduced”. Moreover, in test [2], the bone healing result is reported as “accelerated” and the bone loss result is “inhibited”. Also, the bone loss entry in test [3] is “reduced”.

`NCCc1c[nH]cn1.O=P(O)(O)O` [histamine phosphate]: in test [1], the “rate of bone healing” value is “accelerated” and the “rate of bone loss” value is listed as “reduced”. For the same molecule, the bone healing result in test [4] is on record as “accelereated”. For the same molecule, in test [2], the bone healing result is on record as “accelerated” and the bone loss entry is recorded as “inhibited”.

Regarding `NC(=O)C1=CN([C@@H]2O[C@H](COP(=O)(O)OP(=O)(O)OC[C@H]3O[C@@H](n4cnc5c(N)ncnc54)[C@H](OP(=O)(O)O)[C@@H]3O)[C@@H](O)[C@H]2O)C=CC1` [NADPH], the Km in test [5] is 45 µM.

As to `NCCc1c[nH]c2ccc(O)cc12` [serotonin], in test [1], the “rate of bone healing” value was “accelerated” and the “rate of bone loss” value is reported as “reduced”. Also, in test [2], the bone healing result is recorded as “accelerated” and the bone loss entry is “inhibited”.

Turning to `NC(=O)C1=CN([C@@H]2O[C@H](COP(=O)(O)OP(=O)(O)OC[C@H]3O[C@@H](n4cnc5c(N)ncnc54)[C@H](O)[C@@H]3O)[C@@H](O)[C@H]2O)C=CC1` [NADH], the Km in test [5] was 450 µM.

`NCCc1c[nH]cn1` [histamine]: in test [1], the “rate of bone healing” value was “accelerated” and the “rate of bone loss” value is given as “reduced”. Besides, the “rate of bone loss” value in test [6] was “reduced”. Moreover, in test [7], the “rate of bone loss” value is recorded as “reduced” and the “trauma to bone cells” value is on record as “minimized”. Also, in test [2], the bone healing result is “accelerated” and the bone loss result is recorded as “inhibited”.
